Data as given in the supplement of paper PMC10307832.

Experiments:
Experiment in all cases: relative viability (nuclei count vs DMSO), 5 days (fraction); higher = more cells survive
[1] = compound: C1=CC2=C(C=C(C(=C2N=C1)O)N=NC3=CC4=C(C=C3)C=C(C=C4)S(=O)(=O)O)S(=O)(=O)O + COc1cccc2cc(-c3nc([C@H]4CC[C@H](C(=O)O)CC4)n4ncnc(N)c34)[nH]c12 [OSI-027] (partner 0.5 µM)
In short: (§1)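 For relative viability, nuclei counts in treated wells were divided by those in vehicle wells. Lung cancer cell lines had been pin-tool dosed in 1536-well plates the day after seeding and cultured for 5 days, then fixed and stained in one step (final 0.05% Triton X-100, 1% formaldehyde, 1 ug/ml Hoechst) and imaged at 4×. Doses were one drug alone or a fixed anchor-drug dose plus five library-drug doses (not always all listed) in √10 steps, and values are duplicate-plate medians.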

[2] = compound: C1=CC2=C(C=C(C(=C2N=C1)O)N=NC3=CC4=C(C=C3)C=C(C=C4)S(=O)(=O)O)S(=O)(=O)O + C[C@@H](Oc1cc(-c2cnn(C3CCNCC3)c2)cnc1N)c1c(Cl)ccc(F)c1Cl [Crizotinib] (partner 1 µM)
In short: as §1

[3] = compound: C1=CC2=C(C=C(C(=C2N=C1)O)N=NC3=CC4=C(C=C3)C=C(C=C4)S(=O)(=O)O)S(=O)(=O)O + Nc1ncn([C@H]2C[C@H](O)[C@@H](CO)O2)c(=O)n1 [Decitabine] (partner 2 µM)
In short: as §1

AT-7519 + OSI-027 = compound: O=C(NC1CCNCC1)c1n[nH]cc1NC(=O)c1c(Cl)cccc1Cl [AT-7519] + COc1cccc2cc(-c3nc([C@H]4CC[C@H](C(=O)O)CC4)n4ncnc(N)c34)[nH]c12 [OSI-027] (partner 0.5 µM)
In short: as §1

Row | Cell Line | relative viability ([1]; first compound 0.08 µM) | relative viability ([1]; first compound 0.253 µM) | relative viability ([1]; first compound 0.8 µM) | relative viability ([1]; first compound 2.53 µM) | relative viability ([1]; first compound 8 µM) | relative viability ([2]; first compound 0.08 µM) | relative viability ([2]; first compound 0.253 µM) | relative viability ([2]; first compound 0.8 µM) | relative viability ([2]; first compound 2.53 µM) | relative viability ([2]; first compound 8 µM) | relative viability ([3]; first compound 0.08 µM) | relative viability ([3]; first compound 0.253 µM) | relative viability ([3]; first compound 0.8 µM) | relative viability ([3]; first compound 2.53 µM) | relative viability ([3]; first compound 8 µM) | relative viability (AT-7519 + OSI-027; first compound 0.01 µM) | relative viability (AT-7519 + OSI-027; first compound 0.03162 µM) | relative viability (AT-7519 + OSI-027; first compound 0.3162 µM) | relative viability (AT-7519 + OSI-027; first compound 1 µM)
1 | NCI-H1975 | 0.784 | 0.721 | 0.767 | 0.68 | 0.784 | 1.1 | 0.961 | 1.01 | 0.994 | 0.929 | 0.462 | 0.393 | 0.405 | 0.384 | 0.408 | 0.827 | 0.778 | 0.503 | 0.191
2 | CAL-12T | 0.592 | 0.585 | 0.577 | 0.819 | 0.831 | 0.69 | 0.528 | 0.711 | 0.932 | 0.717 | – | – | – | – | – | 0.673 | 0.649 | 0.296 | 0.135
3 | NCI-H1623 | 0.466 | 0.391 | 0.419 | 0.468 | 0.438 | – | – | – | – | – | – | – | – | – | – | 0.529 | 0.424 | 0.432 | 0.362
4 | HCC-44 | – | 0.651 | 0.5 | 0.55 | 0.601 | 0.935 | 0.767 | 0.807 | 0.819 | 0.859 | 0.935 | 0.932 | 0.93 | 1.04 | 0.949 | 0.516 | 0.493 | 0.28 | 0.317
5 | EKVX | 0.691 | 0.682 | 0.684 | 0.721 | 0.539 | 0.997 | 0.959 | 1 | 0.894 | 0.915 | 0.334 | 0.366 | 0.366 | 0.325 | 0.263 | 0.725 | 0.536 | 0.687 | 0.709
6 | NCI-H1651 | 0.631 | 0.661 | 0.668 | 0.75 | 0.743 | 0.968 | 0.834 | 0.837 | 0.874 | 0.729 | 0.79 | 0.548 | 0.659 | 0.658 | 0.535 | 0.764 | 0.734 | 0.598 | 0.59
7 | NCI-H1944 | 0.411 | 0.423 | 0.414 | 0.415 | 0.425 | 1.24 | 1.1 | 1.09 | 1.12 | 0.846 | 0.448 | 0.437 | 0.446 | 0.376 | 0.38 | 0.436 | 0.402 | 0.367 | 0.328
8 | NCI-H1703 | – | – | – | – | – | 0.795 | 0.717 | 0.526 | 0.559 | 0.735 | – | – | – | – | – | – | – | – | –
9 | Calu-6 | – | – | – | – | – | 0.96 | 0.761 | 0.763 | 0.817 | 0.821 | – | – | – | – | – | – | – | – | –
10 | EBC-1 | – | – | – | – | – | 0.231 | 0.197 | 0.197 | 0.183 | 0.162 | – | – | – | – | – | – | – | – | –
11 | SW 1573 | 0.734 | 0.622 | 0.61 | 0.463 | 0.401 | 0.842 | 0.78 | 0.836 | 0.85 | 0.742 | 0.55 | 0.494 | 0.419 | 0.494 | 0.275 | 0.604 | 0.659 | 0.436 | 0.107
12 | A-427 | 0.402 | 0.447 | 0.45 | 0.41 | 0.5 | 1.05 | 0.814 | 0.978 | 1 | 0.876 | 0.558 | 0.554 | 0.534 | 0.547 | 0.551 | 0.419 | 0.389 | 0.477 | 0.187
13 | NCI-H2347 | 0.505 | 0.532 | 0.5 | 0.341 | 0.392 | 0.691 | 0.674 | 0.651 | 0.768 | 0.636 | 0.586 | 0.61 | 0.602 | 0.629 | 0.614 | 0.457 | 0.389 | 0.358 | 0.229
14 | NCI-H1355 | 0.386 | 0.46 | 0.423 | 0.459 | 0.452 | 1.16 | 1.04 | 0.986 | 1.17 | 1.14 | 0.4 | 0.363 | 0.362 | 0.353 | 0.352 | 0.407 | 0.471 | 0.374 | 0.374
15 | NCI-H358 | 0.94 | 0.738 | 0.746 | 0.772 | 0.847 | 0.582 | 0.606 | 0.616 | 0.618 | 0.351 | 0.245 | 0.216 | 0.218 | 0.203 | 0.132 | 0.83 | 0.676 | 0.527 | 0.194
16 | PC-3 [JPC-3] | 0.815 | 0.71 | 0.791 | 0.778 | 0.769 | 1.07 | 1.02 | 0.999 | 0.978 | 0.966 | 0.843 | 0.793 | 0.833 | 0.883 | 0.814 | 0.706 | 0.904 | 0.697 | 0.696
17 | NCI-H2228 | 0.765 | 0.688 | 0.653 | 0.57 | 0.592 | 0.399 | 0.597 | 0.642 | 0.587 | 0.482 | – | – | – | – | – | 0.517 | 0.586 | 0.469 | 0.446
